Test results from patent US11654140B2, “Treatment of ocular inflammatory diseases using laquinimod” (Active Biotech AB, priority 2012, dated 2023).

Tests used:
[1] = tested on: S-antigen-induced experimental autoimmune uveitis (EAU) in rats; assay: S-antigen-induced experimental autoimmune uveitis in rats (EAU model), slit lamp clinical score (Example 1); type: in vivo, rat; settings: for Slit lamp ocular evaluation of both eyes, Incidence % / Slit lamp ocular evaluation of both eyes, mean clinical score: 10 μl once daily both eyes from Day 7; for Slit lamp ocular evaluation of both eyes, mean clinical score: score 0-6
Experimental: (§1) A 1% (10 mg/ml) and a 5% (50 mg/ml) solution of laquinimod sodium were prepared in sterile water. Dissolution of laquinimod powder was achieved by shaking, stirring, or low-speed vortex. The solutions were stored for up to 2 weeks at 2-8° C. and up to 24 hours at room temperature. Laquinimod solutions were prepared under light protection and were protected from light for the duration of the experiment. […] One 100 mg/4 ml in olive oil dose was prepared every 2 days and stored at room temperature.
(§2) Thirty two female albino Lewis rats were randomly divided into four (4) groups of eight (8) rats. Ocular inflammation was induced at Day 1 by injection of 100 μl of human S-antigen (100 μg) in Freud's complete adjuvant (4 mg/ml) into the footpad of each rat, and an intraperitoneal injection of 1 μg/100 μl pertussis toxin.
(§3) Beginning on Day 7 until the end of the study, each animal group was treated with a test solution in both eyes as shown in Table 1:
Both eyes of each rat were examined with a slit-lamp at baseline and then every 2 days from Day 10 to the end of the study. Fifteen minutes prior to each examination, 10 μl of Mydriaticum (0.5% tropicamide) was instilled for papillary dilatation.
The effect of test material and reference material on ocular inflammation was measured with slit lamp evaluation and scored using the clinical scoring as shown in Table 3: […]

[2] = tested on: S-antigen-induced experimental autoimmune uveitis (EAU) in rats; assay: EAU model in rats, histological ocular evaluation (Example 1); type: in vivo, rat; settings: Day 16; for Histological ocular evaluation of both eyes, mean histologic grade: 10 μl once daily both eyes from Day 7, scale 0-7
Experimental: as §1, §2, §3
Immediately after euthanasia (i.e., at Day 16), both eyeballs of all rats of each group were enucleated and prepared for histological examination. They were fixed in Bouin-Hollande solution, dehydrated, and embedded in paraffin wax. They were then cut into eight sections, approximate five to seven micrometers thick and stained with Trichome of Masson.

[3] = tested on: ovalbumin-induced allergic conjunctivitis (late phase reaction) in mice; assay: Ocular active anaphylaxis (late phase) in mice, ovalbumin model, eosinophil infiltration into conjunctiva (Example 2); type: in vivo; settings: for Eosinophil density, mean / Inhibition of Eosinophil Infiltration vs. Vehicle: 10 μl topical right eye four times daily Day 8-17, five times Day 18; for Eosinophil density, mean: conjunctiva Day 19
Experimental: Laquinimod solutions were prepared as in Example 1.
Forty (40) Balb/c albino mice were randomly allocated to five groups of eight animals each. Only the right eyes of each animal were used in this study.
On Days 1 and 8, animals in groups 2-5 were injected once intraperitoneally with 0.2 ml of a mixture comprising 5 μg/ml ovalbumin and 15 mg/ml alum in phosphate buffered saline (PBS; pH 7.3-7.4). Animals of group 1 received a mock sensitization comprising 0.2 ml intraperitoneal injection of PBS only on Days 1 and 8.
Laquinimod or controls were delivered into the right conjunctival sac as follows: • From Day 8 to Day 17, animals were dosed four times daily with 10 μl of either 1% laquinimod, 5% laquinimod, or vehicle. Reference Group 5 was dosed with the same regimen, but starting on Day 15. (**Note: Due to a technical error, four mice from Group 1 (negative vehicle) were not dosed on Day 8 and one mouse from Group 1 (negative vehicle) was not dosed on Day 11. This was deemed not to be a critical error that would affect the outcome of the study so the study was continued). • On Day 18, animals were dosed five times during a three hour period before the second challenge (3 h, 2 h, 1 h, 40 min., and 10 min.).
Allergic conjunctivitis was achieved by a single administration on Day 15 (30 minutes before the treatment regimen) and Day 18 (2 hours after 40 minute treatment) with 10 μl of 5 mg/ml ovalbumin in PBS, pH 7.3-7.4 to the right eyes of all […] in groups 2 through 5. Group 1 was mock challenged with 10 μl PBS only.
On Day 19 (12 h to 24 h after challenge), […] were euthanized using an intraperitoneal injection of pentobarbital. Right eyelids and eyeballs were immediately fixed in Bouin-Hollande solution for 24 hours and embedded in paraffin wax. Fixed samples were cut vertically into 5 to 7 micrometer thick sections with a microtome in two different regions—the bulbar conjunctiva and the fornix and palpebral conjunctiva. Three sections per region were selected for analysis based on the quality of the sectioning. The selected sections were stained with May-Grunwald/acid Giemsa.
After staining, digital images using 200× magnifications were taken with a Leica light microscope. Total area of subconjunctival tissue was measured automatically using the Leica Application Suite (LAS) software. Eosinophils were counted throughout the whole conjunctiva in each of the three sections per sample. The density per square millimeter of eosinophils stained with acid Giemsa was calculated for each specimen. The average cell density per eye was calculated from the results of the […] sections.

[4] = Animal body weight and adverse clinical effects, ovalbumin study (Example 2); type: in vivo; settings: laquinimod-treated mice, multiple topical administrations
Excerpt: This weight loss is commonly observed during chronic corticosteroid treatments.

[5] = tested on: subject suffering from viral conjunctivitis; assay: Laquinimod for treating viral conjunctivitis (Example 6); type: in vivo; settings: laquinimod composition, once daily
Experimental: (§4) In the examples 4-9 below, the administration of the composition is once daily. The administration can be repeated daily for a period of one, two, three or four days, up to 14 days, or longer as necessary.
A laquinimod composition as described herein is administered to a subject suffering from viral conjunctivitis. The administration of the composition is effective to treat the subject suffering from viral conjunctivitis. The administration of the composition is also effective to reduce intraocular inflammation in the subject.

[6] = tested on: subject suffering from an OID; assay: Laquinimod for treating OID (Example 9); type: in vivo; settings: laquinimod composition, once daily
Experimental: as §4
A laquinimod composition as described herein is administered to a subject suffering from an OID. The administration of the composition is effective to treat the subject suffering from the OID. The administration of the composition is also effective to reduce intraocular inflammation in the subject.

CCN(C(=O)c1c(O)c2c(Cl)cccc2n(C)c1=O)c1ccccc1 [Laquinimod, laquinimod]
Slit lamp ocular evaluation of both eyes, Incidence % ([1]; 1% Laquinimod, Baseline): 0.0%
Slit lamp ocular evaluation of both eyes, mean clinical score ([1]; 1% Laquinimod, Baseline): 0.0
Slit lamp ocular evaluation of both eyes, Incidence % ([1]; 1% Laquinimod, Day 10): 6.3%
Slit lamp ocular evaluation of both eyes, mean clinical score ([1]; 1% Laquinimod, Day 10): 0.1
Slit lamp ocular evaluation of both eyes, Incidence % ([1]; 1% Laquinimod, Day 12): 6.3%
Slit lamp ocular evaluation of both eyes, mean clinical score ([1]; 1% Laquinimod, Day 12): 0.1
Slit lamp ocular evaluation of both eyes, Incidence % ([1]; 1% Laquinimod, Day 14): 18.8%
Slit lamp ocular evaluation of both eyes, mean clinical score ([1]; 1% Laquinimod, Day 14): 0.8
Slit lamp ocular evaluation of both eyes, Incidence % ([1]; 1% Laquinimod, Day 16): 31.3%
Slit lamp ocular evaluation of both eyes, mean clinical score ([1]; 1% Laquinimod, Day 16): 1.3
Slit lamp ocular evaluation of both eyes, mean clinical score ([1]; 1% Laquinimod, Day 16, listed as laquinimod): 1.3±2.1
Slit lamp ocular evaluation of both eyes, Incidence % ([1]; 5% Laquinimod, Baseline): 0.0%
Slit lamp ocular evaluation of both eyes, mean clinical score ([1]; 5% Laquinimod, Baseline): 0.0
Slit lamp ocular evaluation of both eyes, Incidence % ([1]; 5% Laquinimod, Day 10): 0.0%
Slit lamp ocular evaluation of both eyes, mean clinical score ([1]; 5% Laquinimod, Day 10): 0.0
Slit lamp ocular evaluation of both eyes, Incidence % ([1]; 5% Laquinimod, Day 12): 0.0%
Slit lamp ocular evaluation of both eyes, mean clinical score ([1]; 5% Laquinimod, Day 12): 0.0
Slit lamp ocular evaluation of both eyes, Incidence % ([1]; 5% Laquinimod, Day 14): 6.3%
Slit lamp ocular evaluation of both eyes, mean clinical score ([1]; 5% Laquinimod, Day 14): 0.3
Slit lamp ocular evaluation of both eyes, Incidence % ([1]; 5% Laquinimod, Day 16): 12.5%
Slit lamp ocular evaluation of both eyes, mean clinical score ([1]; 5% Laquinimod, Day 16): 0.6
Slit lamp ocular evaluation of both eyes, mean clinical score ([1]; 5% Laquinimod, Day 16, listed as laquinimod): 0.6±1.5
rats tested that demonstrated no intraocular inflammation ([1]; 5% laquinimod solution once per day, Day 16): Six out of eight
Histological ocular evaluation of both eyes, mean histologic grade ([2]; 1% Laquinimod): 1.2
Histological ocular evaluation of both eyes, mean histologic grade ([2]; 1% Laquinimod, listed as laquinimod): 1.2±2.2
eyes showing significant destruction of the retina associated with infiltration of inflammatory cells ([2]; 1% laquinimod once per day): four eyes out of sixteen
Histological ocular evaluation of both eyes, mean histologic grade ([2]; 5% Laquinimod): 0.7
Histological ocular evaluation of both eyes, mean histologic grade ([2]; 5% Laquinimod, listed as laquinimod): 0.7±1.9
eyes showing destruction of the retina associated with infiltration of inflammatory cells ([2]; 5% laquinimod once per day): two eyes (from two different animals) out of sixteen
Eosinophil density, mean ([3]; 1% Laquinimod): 117.5 cells/mm2
Inhibition of Eosinophil Infiltration vs. Vehicle ([3]; 1% Laquinimod, not statistically significant): 48%
Inhibition of Eosinophil Infiltration vs. Vehicle ([3]; 1% Laquinimod, not statistically significant, listed as laquinimod): 48%
Eosinophil density, mean ([3]; 5% Laquinimod): 72.5 cells/mm2
Inhibition of Eosinophil Infiltration vs. Vehicle ([3]; 5% Laquinimod, p 0.0023): 68%
Inhibition of Eosinophil Infiltration vs. Vehicle ([3]; 5% Laquinimod, p 0.0023, listed as laquinimod): 68%
late ocular anaphylaxis reaction ([3]; multiple topical administrations, statistically significant effect at a dose of 5%): inhibited the late ocular anaphylaxis reaction
adverse clinical effect [4]: No adverse clinical effect was observed
treat the subject suffering from viral conjunctivitis [5]: effective
reduce intraocular inflammation in the subject ([5]; viral conjunctivitis): effective
treat the subject suffering from the OID [6]: effective
reduce intraocular inflammation in the subject ([6]; OID): effective
